Holding throughout (assay type): cell-based
For experiment [1], the target named is T1, SMARCA2 (Homo sapiens, UniProt P51531). The experiment can be described thus: Immunoblot of SMARCA2 in A549 cells. As to conditions: 1 μM. Further details: endogenous in cells; host or cells: A549. As for the experimental part:
(§1) Human A549 were seeded in 6-well plate and treated with Ex. 4 or Ex. 2 for 16, 24 and 40 h. Human MOLM13 were seeded in 6-well plate and treated with Ex. 4 for 6, 10, 16, 24 h. After treatment cells were harvested and lysed in RIPA buffer (Thermo Scientific) with Halt Protease and Phosphatase Inhibitor Cocktail (Thermo Scientific). Protein was extracted and quantified by BCA Protein Assay Kit (Pierce). Protein lysate was separated by NuPAGE 3-8% Tris-Acetate protein gels (Invitrogen) and detected by SMARCA2, PARP and β-ACTIN antibodies (Cell Signaling Technology).
(In western blotting, separated proteins are transferred to a membrane and probed.)

Experiment [2] relates to MV4; 11 WT, MV4; 11 CRBN KO, and MOLM13 cells. In words: Cell growth ATPlite assay. As to conditions: Homo sapiens; ATP level by ATPlite, 48 h treatment, normalized to DMSO; cell line not given. As for the experimental part: Human MV4; 11 WT, MV4; 11 CRBN KO, and MOLM13 cells were seeded in 384-well plate and treated with indicated compounds for 48 h. ATP level was measured by ATPlite (PerkinElmer) according to manufactures instructions. Experimental groups were measured in quadruplicate and ATP level was normalized to DMSO. IC50 was analyzed in GraphPad Prism 7.
Background: In ATP-based viability assays light output follows the ATP content of the culture.

The target in experiment [3] is T1, SMARCA2. In words: Immunoblot of SMARCA2 in MOLM13 cells. The arrangement: endogenous in cells. As for the experimental part:
as §1

Where only a bound is given, the exact number is not on record here.

T1 sequence (P51531 whole entry): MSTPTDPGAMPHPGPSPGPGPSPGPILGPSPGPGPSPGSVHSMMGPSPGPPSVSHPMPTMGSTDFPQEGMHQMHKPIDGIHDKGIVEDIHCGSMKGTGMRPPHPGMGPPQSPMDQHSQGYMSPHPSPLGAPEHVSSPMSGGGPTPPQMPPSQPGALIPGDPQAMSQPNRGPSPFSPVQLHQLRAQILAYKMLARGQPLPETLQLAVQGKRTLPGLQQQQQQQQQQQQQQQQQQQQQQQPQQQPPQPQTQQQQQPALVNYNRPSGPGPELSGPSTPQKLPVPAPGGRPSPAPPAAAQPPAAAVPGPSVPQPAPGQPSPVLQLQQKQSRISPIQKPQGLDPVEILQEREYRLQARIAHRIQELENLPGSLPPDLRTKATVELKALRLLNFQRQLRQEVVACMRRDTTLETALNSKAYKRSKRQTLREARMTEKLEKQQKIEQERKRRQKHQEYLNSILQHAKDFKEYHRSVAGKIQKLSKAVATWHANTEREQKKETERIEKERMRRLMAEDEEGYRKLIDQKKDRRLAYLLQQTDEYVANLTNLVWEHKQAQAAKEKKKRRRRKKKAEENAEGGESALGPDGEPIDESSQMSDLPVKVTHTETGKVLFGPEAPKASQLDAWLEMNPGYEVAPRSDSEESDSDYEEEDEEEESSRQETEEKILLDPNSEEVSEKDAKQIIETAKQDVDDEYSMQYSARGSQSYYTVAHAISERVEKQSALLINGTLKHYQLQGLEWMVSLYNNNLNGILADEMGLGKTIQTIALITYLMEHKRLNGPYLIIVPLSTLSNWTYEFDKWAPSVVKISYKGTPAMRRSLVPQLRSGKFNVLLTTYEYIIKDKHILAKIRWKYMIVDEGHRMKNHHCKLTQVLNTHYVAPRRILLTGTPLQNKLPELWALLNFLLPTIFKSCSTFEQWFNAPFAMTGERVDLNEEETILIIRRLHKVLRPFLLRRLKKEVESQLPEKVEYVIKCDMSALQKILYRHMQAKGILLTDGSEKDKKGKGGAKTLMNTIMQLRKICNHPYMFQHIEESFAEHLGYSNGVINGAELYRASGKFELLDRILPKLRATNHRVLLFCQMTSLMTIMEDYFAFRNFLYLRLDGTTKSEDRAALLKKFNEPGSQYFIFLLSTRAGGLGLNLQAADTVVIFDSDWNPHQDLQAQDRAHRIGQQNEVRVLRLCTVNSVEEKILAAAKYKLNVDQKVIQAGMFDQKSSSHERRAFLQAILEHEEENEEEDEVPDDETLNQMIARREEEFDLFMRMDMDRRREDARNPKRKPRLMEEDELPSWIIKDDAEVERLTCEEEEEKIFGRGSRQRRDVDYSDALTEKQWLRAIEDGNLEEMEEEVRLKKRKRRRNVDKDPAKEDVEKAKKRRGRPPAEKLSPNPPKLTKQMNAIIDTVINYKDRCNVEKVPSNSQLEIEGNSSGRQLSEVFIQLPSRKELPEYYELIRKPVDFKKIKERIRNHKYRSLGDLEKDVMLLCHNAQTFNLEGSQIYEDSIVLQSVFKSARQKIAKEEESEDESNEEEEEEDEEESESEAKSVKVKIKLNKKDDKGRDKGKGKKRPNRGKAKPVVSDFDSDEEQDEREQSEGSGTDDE

As to `O=C1CCC(N2C(=O)c3cccc(NCCCCCCCCNC(=O)c4cccc(C#Cc5cc(NC(=O)Nc6ccnc(Cl)c6)ccn5)c4)c3C2=O)C(=O)N1` (stereo not shown) [Example 2], the “time after which cells started to exhibit protein degradation (Western Blot)” value in experiment [1] came out at 40 h. Also, the IC50 (usually the midpoint of a concentration-inhibition curve) in experiment [2] was in the range of 0.1 to 1 µM.

For the molecule `O=C1CCC(N2C(=O)c3cccc(NCCOCCOCCNC(=O)c4cccc(C#Cc5cc(NC(=O)Nc6ccnc(Cl)c6)ccn5)c4)c3C2=O)C(=O)N1` (stereo not shown) [Example 3], the IC50 in experiment [2] lay within 0.1 to 1 µM.

With `O=C1CCC(N2C(=O)c3cccc(NCCCCNC(=O)c4cccc(C#Cc5cc(NC(=O)Nc6ccnc(Cl)c6)ccn5)c4)c3C2=O)C(=O)N1` (stereo not shown) [Example 4], the “time after which cells started to exhibit protein degradation (Western Blot)” value in experiment [1] is 40 h; in experiment [3], 16 h. For the same molecule, the IC50 in experiment [2] is ≤ 0.1 µM.

Take `O=C1CCC(N2C(=O)c3ccc(NCCCCNC(=O)c4cccc(C#Cc5cc(NC(=O)Nc6ccnc(Cl)c6)ccn5)c4)cc3C2=O)C(=O)N1` (stereo not shown) [Example 7]: the 50% inhibitory concentration (IC50) in experiment [2] was ≤ 0.1 µM.

For `O=C1CCC(N2C(=O)c3ccc(NCCOCCNC(=O)c4cccc(C#Cc5cc(NC(=O)Nc6ccnc(Cl)c6)ccn5)c4)cc3C2=O)C(=O)N1` (stereo not shown) [Example 8], in experiment [2], the half-maximal inhibitory concentration (IC50) was ≤ 0.1 µM.

Take `Cc1ncsc1-c1ccc(CNC(=O)[C@@H]2C[C@@H](O)CN2C(=O)[C@@H](NC(=O)CCCCCNC(=O)c2cccc(C#Cc3cc(NC(=O)Nc4ccnc(Cl)c4)ccn3)c2)C(C)(C)C)cc1` [Example 9]: the 50% inhibitory concentration (IC50) in experiment [2] is > 100 µM.

Molecule `Cc1ncsc1-c1ccc(CNC(=O)[C@@H]2C[C@@H](O)CN2C(=O)[C@@H](NC(=O)COCCOCCOCCNC(=O)c2cccc(C#Cc3cc(NC(=O)Nc4ccnc(Cl)c4)ccn3)c2)C(C)(C)C)cc1` [Example 10] registered an IC50 in experiment [2] of 1 to 10 µM.

Turning to `O=C1CCC(N2C(=O)c3cccc(NCCNC(=O)c4cccc(C#Cc5cc(NC(=O)Nc6ccnc(Cl)c6)ccn5)c4)c3C2=O)C(=O)N1` (stereo not shown) [Example 11], the IC50 in experiment [2] was > 100 µM.

For `O=C1CCC(N2C(=O)c3cccc(NCCCCCCNC(=O)c4cccc(C#Cc5cc(NC(=O)Nc6ccnc(Cl)c6)ccn5)c4)c3C2=O)C(=O)N1` (stereo not shown) [Example 12], the 50% inhibitory concentration (IC50) in experiment [2] is ≤ 0.1 µM.

In turn, `O=C1CCC(N2C(=O)c3cccc(NCCCCCCCCCCCC(=O)OCc4cnc(Cl)cc4NC(=O)Nc4cc(C(F)F)ns4)c3C2=O)C(=O)N1` (stereo not shown) [Example 14] came in with an IC50 in experiment [2] of 1 to 10 µM.
